# Measured values: patent US20250241890A1, “1,4-DIUREAS AND 1,4-DITHIOUREAS AND USES THEREOF” (Purdue Research Foundation, priority 2024, published 2025)
# Columns and labels:
# M17D-TR/αS-3K::YFP cells = test: α-Syn inclusion-forming neuroblastoma cell experiment (Incucyte); type: cell-based; details: M17D αS-3K::YFP cells; for cell confluence: relative to DMSO vehicle
# Method: FIG. 11. Compound 1 prevents αS inclusion formation. M17D cells expressing the inclusion-prone αS-3K::YFP fusion protein (dox-inducible) were treated with 0.1% DMSO (vehicle; “0 μM”) as well as 1.25, 2.5, 5 and 10 μM of compounds 1, 2 and 8 at t=24 hours after plating. Cells were induced with doxycycline at t=48 hours. A) Incucyte-based analysis of punctate YFP signals relative to 0.1% DMSO was done at t=96 hours (N=3 independent experiments, n=6-18 individual wells total (0 μM, n=18; 10 μM, n=6; all other concentrations, n=12). B) Same as panel A, but confluence fold changes relative to DMSO vehicle (0 μM) were plotted. C) Representative IncuCyte images of reporter cells treated with vehicle vs. 10 μM compounds 1, 2, or 8 (t=96 h), green channel. Arrows indicate αS-rich YFP-positive inclusions. Scale bar, 50 μm. All data are presented as fold-changes relative to DMSO control +/−standard deviation. One-way ANOVA, Dunnett's post-hoc test; *, p<0.05; **, p<0.01; ***, p<0.001.
# Chemical and peptide source. Dimethylsulfoxide (DMSO) and thioflavin-T (ThT) were purchased from Alfa Aesar (Ward Hill, MA). Recombinant α-synuclein (α-syn) was procured from rPeptide (WatKinsville, GA). The recombinant p-tau isoform 1N4R was prepared as published previously (Fortin et al. 2021, Sui et al. 2015, Liu et al. 2020). Concerning the preparation of tau 0N4R, a bacterial expression plasmid consisting of the vector pET30a carrying a cDNA encoding the human Tau 0N4R isoform was a kind gift of Dr. Benjamin Wolozin (Boston University). E. coli stock (Rosetta BL21 E. coli (CamR) containing pET30a [0N4R tau wt] (KanR)) was grown in LB medium supplemented with kanamycin (50 μg/mL) and chloramphenicol (50 μg/mL). Protein over-expression was induced by the addition of 1 mM IPTG for ˜18 hours at 37° C., and cells were pelleted by centrifugation at 6,000 g for 15 minutes at 4° C. The cells were resuspended in lysis buffer (10 mM Hepes, pH 7.4, 50 mM NaCl, 1 mM MgCl2, 1 mM PMSF, 1× PIC, and 0.5 mM DTT) and lysed by sonication at 30 seconds “On” and 1 minute “Off” at ˜30-45% power for ˜3-5 minutes. Lysate was centrifuged at 10,000 rpm for 10 minutes at 4° C., and supernatant was transferred with 7.8 ml (total) of 3M NaCl. The lysate was incubated for 10 minutes in 80° C. water bath, then cooled for 10 minutes in an ice bath. The lysate was centrifuged at 10,000 rpm at 4° C. for 10 minutes, and the supernatant was transferred to a new tube. The supernatant was dialyzed overnight against cation exchange buffer (50 mM MES, […], 1 mM DTT, pH 6.0). The dialysate was loaded onto a HiPrep SP HP column, and proteins were eluted with a linear gradient ranging from 50 mM to 1 M NaCl. General Characterizations. ^1H and ^13C {1H} NMR spectra were recorded using a 500 MHz Bruker instrument working at a frequency of 500 MHz for ^1H and at 126 MHz for ^13C. Chemical shifts are reported in ppm using residual solvent resonances as internal reference (δ 2.50 and δ 39.51 for ^1H and ^13C in DMSO-d6, respectively). ^1H NMR data are reported as follows. b=broad, s=singlet, d=doublet, t=triplet, q=quartet, and m=multiplet. Coupling constants are given in hertz. The purity of all compounds and synthetic intermediates was judged to be 95% or better based on ^1H NMR. […] Thioflavin fluorescence assays. Thioflavin fluorescence assays were used to monitor fibril formation of commercial recombinant α-syn at a final concentration of 2 μM and treated with control DMSO and different compounds. […]
# [1] = system: neuroblastoma cells (SH-SY5Y); test: MTT cytotoxicity; type: cell-based, human; details: for cell survival, MTT, difference to DMSO control: 20 μM, 48 hours; for cytotoxicity, MTT: 5 or 10 μM, 24 hours
# Method: MTT (3-(4,5-Dimethylthiazol-2-yl)-2,5-diphenyltetrazolium bromide) is a tetrazolium salt that is commonly used to detect reductive metabolism in cells for viability, proliferation and cytotoxicity assays. MTT was utilized in order to evaluate metabolic cellular toxicity of compounds 1, 2, and DMSO (vehicle) using human neuroblastoma cells (SH-SY5Y). Cells were diluted in cellular media in order to obtain ˜500,000 cells per condition and grown for 8-12 hours prior treatment. Cellular media (see the material and method section below) was then removed. The cells were then treated with compounds 1 or 2 at 20 μM or DMSO control at 0.05% (FIG. 9) diluted in cellular media followed by an additional incubation of 48 hours. Cellular media was removed, and the cells were treated with 50% MTT in cellular media for 2 hours at 37° C. followed by detergent solution. Differences were considered non-significant (at p<0.05) (FIG. 9) based on the one-way analysis of variance (ANOVA) without post-test performed with GraphPad Prism (version 5).
# MTT assay was performed once again with compounds 1 and 2 and DMSO control at 5 and 10 μM. Each well contained ˜500,000 cells (6-well plate) prepared 8-12 hours prior to treatment. The cells were treated for 24 hours, and then MTT method was applied to assess cell survival. […] No differences were detected at p<0.001 using the one-way analysis of variance (ANOVA) with Dunnett's multiple comparison test.
# [2] = system: neuroblastoma cells (SH-SY5Y); test: Crystal violet staining cytotoxicity; type: cell-based, human; details: four days
# Method: The cytotoxicity of compounds 1 and 2 was assessed using human neuroblastoma cells (SH-SY5Y). Employing the crystal violet staining method, determination of the optical density was used to reflect on the percentage of cells attached to each well (6-well plate format) after treatment with control DMSO (0.14) and compound concentrations at 5 and 10 μM. Treated cells were incubated at 37° C. with 5% CO2 for four days. […] Compound 2 was also non cytotoxic at higher concentration, i.e., 10 μM. Differences were not statistically significant at […] via one-way analysis of variance ANOVA with post-test (Dunnett's multiple comparison test).
SMILES,cell confluence (M17D-TR/αS-3K::YFP cells; 1.25 to 10 μM),"numbers of α-syn inclusions (M17D-TR/αS-3K::YFP cells; 1.25 to 10 μM, t=96 hours)","cell survival, MTT, difference to DMSO control [1]","cytotoxicity, MTT [1]","cytotoxicity, crystal violet staining ([2]; 5 μM)","cytotoxicity, crystal violet staining ([2]; 10 μM)","α-syn inclusion formation (punctate YFP signals relative to DMSO) (M17D-TR/αS-3K::YFP cells; 5 and 10 μM, t=96 hours)"
"S=C(Nc1ccc(NC(=S)Nc2cccc3cc[nH]c23)cc1)Nc1cccc2cc[nH]c12 [Compound 8, 3-(1H-indol-7-yl)-1-(4-{[(1H-indol-7-yl)carbamothioyl]amino}phenyl)thiourea]",did not exhibit changes in the cell confluence,very minimal changes in the numbers of inclusions,–,–,–,–,–
"O=C(Nc1ccc(NC(=O)Nc2cccc3[nH]ccc23)cc1)Nc1cccc2[nH]ccc12 [Compound 1, 3-(1H-indol-4-yl)-1-(4-{[(1H-indol-4-yl)carbamoyl]amino}phenyl)urea]",did not exhibit changes in the cell confluence,–,non-significant,did not induce cytotoxicity,non cytotoxic,–,–
"S=C(Nc1ccc(NC(=S)Nc2cccc3[nH]ccc23)cc1)Nc1cccc2[nH]ccc12 [Compound 2, 3-(1H-indol-4-yl)-1-(4-{[(1H-indol-4-yl)carbamothioyl]amino}phenyl)thiourea]",did not exhibit changes in the cell confluence,–,non-significant,did not induce cytotoxicity,non cytotoxic,non cytotoxic,increased the inclusions
